In assay [1] the test system is Matrix metalloproteases. The experiment in a line: In vitro inhibition of Matrix metalloproteases, overall assessment. It counts as biochemical. The text has this:
(§1) In vitro specific inhibition of MMP-2 and MMP-9 activity by [R]-(N-[(2,4-dihydroxyphenyl)ethyl]glycine and [S]-N-[(2,4-dihydroxyphenyl)ethyl]glycine was estimated with assay kits from Biomol Corporation. Recombinant human MMP-1 enzyme was obtained from R&D Systems. The enzyme was first activated with APMA according to the protocol provided by R&D Systems. The experimental conditions for the screening of MMP-1 inhibitors were similar to the settings used for MMP-2 and MMP-9 testing.

For assay [2], the target named is T1, Recombinant human MMP-1 enzyme (Homo sapiens, UniProt P03956).
T1 construct: purchased R&D Systems
T1 sequence (P03956 100-469): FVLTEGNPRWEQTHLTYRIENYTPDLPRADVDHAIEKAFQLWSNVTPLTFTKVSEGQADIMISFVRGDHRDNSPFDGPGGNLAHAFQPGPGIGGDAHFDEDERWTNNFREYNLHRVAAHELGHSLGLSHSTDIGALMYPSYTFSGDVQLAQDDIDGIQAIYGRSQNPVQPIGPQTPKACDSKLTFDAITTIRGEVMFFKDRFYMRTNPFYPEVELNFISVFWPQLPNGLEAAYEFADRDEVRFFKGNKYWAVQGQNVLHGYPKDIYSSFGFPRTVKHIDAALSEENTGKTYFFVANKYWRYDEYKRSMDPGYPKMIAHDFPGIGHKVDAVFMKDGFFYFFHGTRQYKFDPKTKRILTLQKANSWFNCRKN
The experiment in a line: In vitro inhibition of MMP-1. It counts as biochemical. To be noted: enzyme activated with APMA, read-out: 50% Inhibition Concentration MMP-1 (converted).
Source text: as §1
(§2) In vitro inhibition of MMP1, 2 and 9 for several samples (mcg=micro-grams).

Assay [3] relates to mushroom tyrosinase. The experiment in a line: Inhibition of tyrosinase, kinetic analysis. To be noted: for IC50: 20 C, phosphate buffer 100 mM, pH 6.8, read-out: Tyrosinase Inhibitory Concentration. Format: biochemical. As for the experimental part:
Method. Kinetic analysis of 2,4 DHA inhibition.
All reactions were performed at 20 C, in phosphate buffer 100 mM, pH 6.8, mushroom tyrosinase.

In assay [4] the target is T2, MMP-2 (Homo sapiens, UniProt P08253).
T2 construct: purchased Biomol Corporation
The experiment in a line: In vitro inhibition of MMP-2 (Biomol assay kit). Format: biochemical. To be noted: read-out: 50% Inhibition Concentration MMP-2 (converted).
Source text: as §1, §2

Assay [5] deals with skin. The experiment in a line: Differences in antiaging and skin whitening affect of [S] and [R] isomers.
Assay [6] deals with T3, MMP-9 (Homo sapiens, UniProt P14780).
T3 construct: purchased Biomol Corporation
The experiment in a line: In vitro inhibition of MMP-9 (Biomol assay kit). To be noted: read-out: 50% Inhibition Concentration MMP-9 (converted). It counts as biochemical.
Source text: as §1, §2

Molecules are shown by their SMILES. Entries after “also recorded” stand apart in the source; their conditions may differ. Read-outs that look alike come from different tables or passages of the source.

T2 sequence (P08253 110-452 limits assumed, species assumed): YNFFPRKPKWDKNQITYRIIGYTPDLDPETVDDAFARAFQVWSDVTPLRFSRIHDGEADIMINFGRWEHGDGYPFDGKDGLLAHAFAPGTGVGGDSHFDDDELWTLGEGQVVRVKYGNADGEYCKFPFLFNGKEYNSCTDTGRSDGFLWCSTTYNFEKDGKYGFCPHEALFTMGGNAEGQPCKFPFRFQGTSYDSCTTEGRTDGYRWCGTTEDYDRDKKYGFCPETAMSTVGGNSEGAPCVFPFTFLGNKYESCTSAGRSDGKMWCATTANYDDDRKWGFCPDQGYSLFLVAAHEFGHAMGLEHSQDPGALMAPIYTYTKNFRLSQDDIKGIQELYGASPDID
T3 sequence (P14780 107-444 limits assumed, species assumed): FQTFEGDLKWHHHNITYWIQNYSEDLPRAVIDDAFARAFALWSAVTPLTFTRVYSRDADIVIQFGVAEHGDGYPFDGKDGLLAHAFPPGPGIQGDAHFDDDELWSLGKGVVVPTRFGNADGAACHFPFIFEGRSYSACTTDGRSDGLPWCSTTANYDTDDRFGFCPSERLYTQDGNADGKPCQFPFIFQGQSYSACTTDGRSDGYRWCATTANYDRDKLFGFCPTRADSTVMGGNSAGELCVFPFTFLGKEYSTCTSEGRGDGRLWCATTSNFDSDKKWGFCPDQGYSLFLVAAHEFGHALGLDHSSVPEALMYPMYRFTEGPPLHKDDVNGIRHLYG

With `C[C@@H](NCC(=O)O)c1ccc(O)cc1O`, the “MMP inhibition (in words)” value in assay [1] (MMP1, 2 and 9) is “very good and general inhibition”; in assay [1] (MMP1, 2 and 9, listed as [R]-(N-[(2,4-dihydroxyphenyl)ethyl]glycine)), “MMP inhibition”. Also, the IC50 in assay [2] is 94.7 µM; in assay [3], 5000 µM; in assay [4] it was 71 µM; in assay [6] it was 94.7 µM. In addition, the “Tyrosinase inhibition (in words)” value in assay [3] is reported as “excellent inhibitor”; in assay [3] (listed as [R]-(N-[(2,4-dihydroxyphenyl)ethyl]glycine)), “anti-tyrosinase activity”. For the same compound, in assay [5], the “Skin whitening benefits, [R] versus [S] isomer” value is listed as “better skin whitening benefits”.

In the case of `OC[C@H]1O[C@@H](Oc2ccc(O)cc2)[C@H](O)[C@@H](O)[C@@H]1O` [Arbutin, reference compound], the IC50 in assay [3] was 25000 µM.

Turning to `C[C@H](NCC(=O)O)c1ccc(O)cc1O` [[S]-N-[(2,4-dihydroxyphenyl)ethyl]glycine], the “MMP inhibition (in words)” value in assay [1] (MMP1, 2 and 9) is “MMP inhibition; also recorded: just a bit weaker, but still quite acceptable”. In addition, the IC50 in assay [2] was 166 µM; in assay [3], 10000 µM; in assay [4] it was 189 µM; in assay [6] it was 284 µM. Moreover, the “Tyrosinase inhibition (in words)” value in assay [3] is “anti-tyrosinase activity; also recorded: excellent inhibitor”. Further, the “Antiwrinkle properties, [S] versus [R] isomer” value in assay [5] is given as “better antiwrinkle properties”.
